{"source": "patent US20230039987A1", "about": "“GEL COMPOSITIONS, SYSTEMS, AND METHODS” (Boston Scientific Scimed, Inc., priority 2021, published 2023)", "tested_on": "NIH 3T3 fibroblasts", "conditions": "read-out: IC50 (cytotoxicity); 24 hours, MTS", "note": "pIC50: −log10 of the molar value.", "experimental": "In vitro cytotoxicity of the photoinitiator and the gel were tested using NIH 3T3 fibroblasts cultured in Dulbecco's Modified Eagle's Medium (DMEM) containing 10% fetal bovine serum and 1% penicillin-streptomycin. Cells were seeded in either 96 well plates or 12 well plates at a density of 2,500 cells/well or 25,000 cells/well, respectively, and allowed to adhere overnight. Photoinitiator solutions and the gel solution were sterile filtered using a 0.22 um filter prior to testing in vitro. The gel solution was then gelled within the biosafety cabinet using the 150 W halogen lamp and co-cultured with the cells utilizing a 3 μm pore size transwell insert. Cells were incubated with treatments for 24 hours and then viability was measured using an MTS (3-(4,5-dimethyltriazol-2-yl)-5-(3-carboxymethoxyphenyl)-2-(4-sulfophenyl)-2H-tratrazolium, inner salt) assay (CellTiter 96® AQueous One, Promega). Cell viabilities were normalized to control untreated cells.", "data": [{"smiles": "O=C(O)c1ccccc1-c1c2cc(Br)c(=O)c(Br)c-2oc2c(Br)c(O)c(Br)cc12", "note": "[photoinitiator, Eosin Y]", "values": [{"measurement": "pIC50", "result": "~3.65"}]}]}
